Assay results published in PubChem BioAssay AID1963444 (Molecular Pharmacology Branch, DTP, NCI, 2024).

System: HSSY-II complex spheroid growth, percent test/control
Assay: Anticancer human tumor HSSY-II cell line growth inhibition [Asc];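 also: spheroids exposed to drug for 7 days before reading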
Settings: for IC50: curve of first compound; for viability, T/C: stronger effect = lower value
Procedure, shortened: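 Complex spheroids combining tumor cells with HUVEC endothelial cells and human MSCs, at 37 degrees C, 5% CO2; agents tested alone or combined, half-log dilutions from at or near clinical Cmax, or 10 microM if Cmax unknown.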

With `NC(=O)C(=Cn1cnc(-c2cc(C(F)(F)F)cc(C(F)(F)F)c2)n1)c1cncnc1` + CNC(C)C(=O)NC1CN(S(=O)(=O)c2cccc(S(=O)(=O)N3CCC4CCC(C(=O)NC(c5ccccc5)c5ccccc5)N4C(=O)C(NC(=O)C(C)NC)C3)c2)CCC2CCC(C(=O)NC(c3ccccc3)c3ccccc3)N2C1=O the IC50 (second compound 0.01 µM) was 10.6 nM, the IC50 (second compound 0.0316 µM) was 14.3 nM and the IC50 (second compound 0.1 µM) was 12.9 nM. It also gave an IC50 (second compound 0.316 µM) of 11.1 nM, an IC50 (second compound 1 µM) of 12.7 nM and a viability, T/C (second compound 0.01 µM, first compound 0.000949 µM) of 93.6%. It also gave a viability, T/C (second compound 0.01 µM, first compound 0.003 µM) of 78.1%, a viability, T/C (second compound 0.01 µM, first compound 0.00949 µM) of 53.5% and a viability, T/C (second compound 0.01 µM, first compound 0.03 µM) of 23.7%. For the same compound, the viability, T/C (second compound 0.01 µM, first compound 0.0949 µM) was 11.5%, the viability, T/C (second compound 0.01 µM, first compound 0.3 µM) was 0.44% and the viability, T/C (second compound 0.0316 µM, first compound 0.000949 µM) was 77.6%. It also gave a viability, T/C (second compound 0.0316 µM, first compound 0.003 µM) of 79.4%, a viability, T/C (second compound 0.0316 µM, first compound 0.00949 µM) of 57.8% and a viability, T/C (second compound 0.0316 µM, first compound 0.03 µM) of 32.5%. It also gave a viability, T/C (second compound 0.0316 µM, first compound 0.0949 µM) of 9.75%, a viability, T/C (second compound 0.0316 µM, first compound 0.3 µM) of 0.64% and a viability, T/C (second compound 0.1 µM, first compound 0.000949 µM) of 76.4%. It also gave a viability, T/C (second compound 0.1 µM, first compound 0.003 µM) of 68.2%, a viability, T/C (second compound 0.1 µM, first compound 0.00949 µM) of 58.9% and a viability, T/C (second compound 0.1 µM, first compound 0.03 µM) of 28.8%. It also gave a viability, T/C (second compound 0.1 µM, first compound 0.0949 µM) of 7.63%, a viability, T/C (second compound 0.1 µM, first compound 0.3 µM) of 0.48% and a viability, T/C (second compound 0.316 µM, first compound 0.000949 µM) of 91.1%. For the same compound, the viability, T/C (second compound 0.316 µM, first compound 0.003 µM) was 73.5%, the viability, T/C (second compound 0.316 µM, first compound 0.00949 µM) was 55.1% and the viability, T/C (second compound 0.316 µM, first compound 0.03 µM) was 29.3%. The viability, T/C (second compound 0.316 µM, first compound 0.0949 µM) was 6.77%, the viability, T/C (second compound 0.316 µM, first compound 0.3 µM) was 0.44% and the viability, T/C (second compound 1 µM, first compound 0.000949 µM) was 88.1%. The viability, T/C (second compound 1 µM, first compound 0.003 µM) was 79.8%, the viability, T/C (second compound 1 µM, first compound 0.00949 µM) was 56.3% and the viability, T/C (second compound 1 µM, first compound 0.03 µM) was 29.9%. The viability, T/C (second compound 1 µM, first compound 0.0949 µM) was 5.98% and the viability, T/C (second compound 1 µM, first compound 0.3 µM) was 0.56%.

In the case of `NC1CCC(NC2CC2c2ccccc2)CC1` (stereo not given) + CNC(C)C(=O)NC1CN(S(=O)(=O)c2cccc(S(=O)(=O)N3CCC4CCC(C(=O)NC(c5ccccc5)c5ccccc5)N4C(=O)C(NC(=O)C(C)NC)C3)c2)CCC2CCC(C(=O)NC(c3ccccc3)c3ccccc3)N2C1=O, the IC50 (second compound 0.01 µM) is reported as > 100 nM, the IC50 (second compound 0.0316 µM) is reported as < 0.316 nM and the IC50 (second compound 0.1 µM) is reported as 0.67 nM. For the same compound, the IC50 (second compound 0.316 µM) was < 0.316 nM, the IC50 (second compound 1 µM) was < 0.316 nM and the viability, T/C (second compound 0.01 µM, first compound 0.000316 µM) was 59.5%. It also gave a viability, T/C (second compound 0.01 µM, first compound 0.001 µM) of 59.1%, a viability, T/C (second compound 0.01 µM, first compound 0.00316 µM) of 48.6% and a viability, T/C (second compound 0.01 µM, first compound 0.01 µM) of 54.9%. It also gave a viability, T/C (second compound 0.01 µM, first compound 0.0316 µM) of 56.4%, a viability, T/C (second compound 0.01 µM, first compound 0.1 µM) of 52.1% and a viability, T/C (second compound 0.0316 µM, first compound 0.000316 µM) of 43.9%. It also gave a viability, T/C (second compound 0.0316 µM, first compound 0.001 µM) of 43.3%, a viability, T/C (second compound 0.0316 µM, first compound 0.00316 µM) of 46.4% and a viability, T/C (second compound 0.0316 µM, first compound 0.01 µM) of 49.3%. For the same compound, the viability, T/C (second compound 0.0316 µM, first compound 0.0316 µM) was 45.5%, the viability, T/C (second compound 0.0316 µM, first compound 0.1 µM) was 48.7% and the viability, T/C (second compound 0.1 µM, first compound 0.000316 µM) was 56.2%. For the same compound, the viability, T/C (second compound 0.1 µM, first compound 0.001 µM) was 46.3%, the viability, T/C (second compound 0.1 µM, first compound 0.00316 µM) was 48.4% and the viability, T/C (second compound 0.1 µM, first compound 0.01 µM) was 49.2%. For the same compound, the viability, T/C (second compound 0.1 µM, first compound 0.0316 µM) was 39%, the viability, T/C (second compound 0.1 µM, first compound 0.1 µM) was 49.9% and the viability, T/C (second compound 0.316 µM, first compound 0.000316 µM) was 51.2%. The viability, T/C (second compound 0.316 µM, first compound 0.001 µM) was 44.2%, the viability, T/C (second compound 0.316 µM, first compound 0.00316 µM) was 49.4% and the viability, T/C (second compound 0.316 µM, first compound 0.01 µM) was 43.4%. It also gave a viability, T/C (second compound 0.316 µM, first compound 0.0316 µM) of 47.1%, a viability, T/C (second compound 0.316 µM, first compound 0.1 µM) of 47.6% and a viability, T/C (second compound 1 µM, first compound 0.000316 µM) of 38.7%. The viability, T/C (second compound 1 µM, first compound 0.001 µM) was 47.1%, the viability, T/C (second compound 1 µM, first compound 0.00316 µM) was 51.8% and the viability, T/C (second compound 1 µM, first compound 0.01 µM) was 41.2%. For the same compound, the viability, T/C (second compound 1 µM, first compound 0.0316 µM) was 46.6% and the viability, T/C (second compound 1 µM, first compound 0.1 µM) was 52.7%.
